Assay results published in PubChem BioAssay (NCI).
Several values for one entry are separate records, joined by “and”; a condition that tells them apart may be missing. Identical values can stand only once.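 Following 48 hours of exposure in 96-well plates, responses at five concentrations were used to interpolate endpoints linearly. GI50 marks 50% less growth. At the TGI there is no net growth.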 *1 amine or outer side, *2 acyl side, *3 side chain or, on linkers, in order; H or OH if unused. Where a SMILES comes first, the peptide text is derived from it. Bridges are numbered along the chain shown (N, C = ends). Roman numbers before positions name the chains, in order. [ ]: non-standard residue; d: D form. Actinocin(9to1) = Cc1c2oc3c(C)ccc(C(=O)[*:1])c3nc-2c(C(=O)[*:2])c(N)c1=O; NMeV = CN[CH](C(=O)O)C(C)C; Sar = CNCC(=O)O

system: MDA-MB-468 breast; assay: inhibition of tumour cell growth, NCI panel, 48 h

How did the GI50 turn out when `C[C@]12CC[C@@H]3c4ccc(O)cc4CC[C@H]3[C@@H]1CC[C@@H]2NS(=O)(=O)c1cccc(Cl)c1` was run?
The GI50 was 1.98 µM.

And the TGI?
The TGI was 8.12 µM.

Which GI50 does the source give for `O=C1NCN(c2ccccc2)C12CCN(CCCC(c1ccc(F)cc1)c1ccc(F)cc1)CC2` here?
Its GI50 is 1.77 µM.

And the TGI?
Its TGI is 4.37 µM.

What does the source list for `CCN1C(=O)N(CC)C2C1NN=c1s/c(=C\c3cccs3)c(=O)n12` (centres undefined)?
GI50: 0.113 µM; TGI: > 100 µM

Which results are given for `COc1cccc(Sc2ccc([N+](=O)[O-])c3no[n+]([O-])c23)c1`?
GI50: 2.42 µM; TGI: 7.61 µM

Which results are given for `COc1ccc(C(C#N)=C2C=CC(=NO)C=C2)cc1`?
GI50: 0.833 µM; TGI: 4.56 µM

Which results are given for `CCCCC[C@H]1CC=C2C(=O)C=C[C@@H]2CC=CCCCC(=O)O[C@@H](CCCCC)CC=C2C(=O)C=C[C@@H]2CC=CCCCC(=O)O[C@@H](CCCCC)CC=C2C(=O)C=C[C@@H]2CC=CCCCC(=O)O1`?
GI50: 0.272 µM; TGI: 0.847 µM

How did the GI50 turn out when `CC(=O)O[C@@]12CO[C@@H]1C[C@H](O)[C@@]1(C)C(=O)[C@H](O)C3=C(C)[C@@H](OC(=O)[C@H](O)[C@@H](NC(=O)OC(C)(C)C)c4ccccc4)C[C@@](O)([C@@H](OC(=O)c4ccccc4)C12)C3(C)C` (some centres undefined) was run?
Its GI50 is under 0.005 µM.

Which results are given for `COc1cc(OC)c(/C=C/C(=O)c2ccc(Nc3ncnc4ccccc34)cc2)c(OC)c1`?
GI50: 0.306 µM; TGI: 1.55 µM

`c1cc(CN2CCCNCCNCCCNCC2)ccc1CN1CCCNCCNCCCNCC1` was tested. Which GI50 did it give?
Its GI50 is over 100 µM.

What about the TGI of the same compound?
The TGI was over 100 µM.

`C=C1C(=O)O[C@H]2[C@H]1CC/C(Cn1cc(Cc3c[nH]c4ccccc34)nn1)=C\CC[C@@]1(C)O[C@@H]21` was tested. Which GI50 did it give?
Its GI50 is 1.45 µM.

And the TGI?
The TGI was 3.88 µM.

Which GI50 does the source give for `CC(CN(C)C)S(=O)(=O)c1ccc(-c2cnc(N)c(C(=O)Nc3ccccc3)n2)cc1` (centres undefined) here?
The GI50 was 4.98 µM.

What about the TGI of the same compound?
Its TGI is 20.4 µM.

What does the source list for `O=P(O)(O)OCC1OC(n2cnc3c(NCc4ccco4)ncnc32)C(O)C1O` (centres undefined)?
GI50: 2.27 µM; TGI: 7.66 µM

`C=C(C)[C@@H]1CC[C@]2(COCCCNCCCN)CC[C@]3(C)[C@H](CC[C@@H]4[C@@]5(C)CC[C@H](OCCCN)C(C)(C)[C@@H]5CC[C@]43C)[C@@H]12` was tested. Which GI50 did it give?
Its GI50 is 0.882 µM.

And the TGI?
The TGI was 1.74 µM.

Which results are given for `N#Cc1cnc2ccc(-c3cnc4n[nH]nc4c3)cc2c1N1CCc2cc(F)c(Cl)cc21`?
GI50: 1.99 µM; TGI: 10.7 µM

How did the GI50 turn out when `COc1ccc(-c2nsc3c2NC(=O)CC3c2ccc3c(c2)OCCO3)cc1` (centres undefined) was run?
Its GI50 is 0.328 µM.

What about the TGI of the same compound?
Its TGI is over 100 µM.

What does the source list for `CCN1C(=O)N(CC)C2SC(N/N=C/c3ccccc3F)=NC21` (centres undefined)?
GI50: 0.296 µM; TGI: 24.7 µM

What does the source list for `c1ccc2cc(Cn3cc[n+](Cc4ccc5ccccc5c4)c3)ccc2c1`?
GI50: 0.25 µM; TGI: 0.849 µM

With `O=C1/C(=C/c2ccc(F)c(F)c2)CN(C(=O)C(Cl)Cl)C/C1=C\c1ccc(F)c(F)c1` as the compound, how does the GI50 read?
Its GI50 is 0.158 µM.

And the TGI?
Its TGI is 0.352 µM.

`C=C1C(=O)O[C@H]2[C@H]1CC/C(COC(=O)c1cn(C)c3ccccc13)=C\CC[C@@]1(C)O[C@@H]21` was tested. Which GI50 did it give?
The GI50 was 0.446 µM.

What about the TGI of the same compound?
The TGI was 1.99 µM.

What does the source list for `COc1cc(-c2nn(-c3cccc(NC(=O)NCCNS(=O)(=O)c4ccc(Cl)cc4)c3)cc2-c2ccncc2)ccc1Cl`?
GI50: 0.332 µM; TGI: 1.67 µM

For `COc1cccc(-n2ncc3c(N/N=C/c4ccc(C)cc4)ncnc32)c1`, which GI50 is on record?
The GI50 was over 25 µM.

What about the TGI of the same compound?
Its TGI is over 25 µM.

How did the GI50 turn out when `CN(C)C(=S)/N=c1\ssc(=S)n1Cc1cccs1` was run?
Its GI50 is 4.07 µM.

And the TGI?
Its TGI is over 100 µM.

What does the source list for `COC12C=C/C(=C(/C(=O)OCCSc3ccnn3C)C(=O)CCCCCCCCC3(OC)C=C/C(=C(/C(=O)OCCSc4ccnn4C)C(=O)CCCCCCCC1)O3)O2`?
GI50: 0.951 µM; TGI: 4.13 µM

Which results are given for `CCC#CC[C@H](O)C/C=C1/C(=O)C=C[C@@H]1C/C=C\CCCC(=O)OC`?
GI50: 1.23 µM; TGI: 3.98 µM

Which results are given for `CC/C=C\C[C@H](O)C/C=C1/C(=O)C=C[C@@H]1C/C=C\CCCC(=O)OC(C)C`?
GI50: 1.29 µM; TGI: 3.06 µM

How did the GI50 turn out when `Cc1c2oc3c(C)ccc(C(=O)OC(C)C4NC(=O)C(C(C)C)N(C)C(=O)CN(C)C(=O)C5CCCN5C(=O)C(C(C)C)NC4=O)c3nc-2c(C(=O)OC(C)C2NC(=O)C(C(C)C)N(C)C(=O)CN(C)C(=O)C3CCCN3C(=O)C(C(C)C)NC2=O)c(N)c1=O` (centres undefined) (I: cyclo([Sar][NMeV]TVP) / II: cyclo([Sar][NMeV]TVP); linker I:3-II:3 via Actinocin(9to1); configuration not given here) was run?
The GI50 was under 0.01 µM.

What about the TGI of the same compound?
The TGI was 0.0152 µM.

With `CCN(CC)CCCOc1ccc2ncnc(Nc3ccc(Oc4cccc(C(F)(F)F)c4)c(Cl)c3)c2c1` as the compound, how does the GI50 read?
Its GI50 is 0.879 µM.

And the TGI?
The TGI was 2.33 µM.

Which results are given for `CCCCCCCCCCCC[N+](C)(C)Cc1ccccc1`?
GI50: 0.508 µM; TGI: 4.25 µM

Which GI50 does the source give for `CC(=Nc1ccccc1)C1=C(O)C(Cc2cccc(F)c2)NC1=O` (centres undefined) here?
The GI50 was 0.0364 µM.

What about the TGI of the same compound?
The TGI was 62 µM.

How did the GI50 turn out when `CCCCCCCN(CCCCCCC)C(=N)c1ccnc2ccccc12` was run?
The GI50 was 1.7 µM.

And the TGI?
Its TGI is 3.37 µM.

What does the source list for `Nc1ncnc2c1c(-c1ccc(Oc3ccccc3)cc1)nn2C[C@H]1SSC[C@@H]1O`?
GI50: 0.351 µM; TGI: 1.63 µM

What does the source list for `O=C(Nc1ccc2ncnc(Nc3ccc(Oc4cccc(F)c4)c(Cl)c3)c2c1)c1ccc(CN2CCOCC2)cc1`?
GI50: 1.5 µM; TGI: 6.57 µM

Which results are given for `CC(C)(C)Nc1nc2c(OCCc3ccccc3)cccn2c1-c1ccc(Cl)cc1`?
GI50: 16.9 µM; TGI: 45.3 µM

What does the source list for `CN(C)c1ccc(C(=N)c2ccc(N(C)C)cc2)cc1`?
GI50: 0.509 µM and 0.759 µM; TGI: 3 µM and 3.52 µM

What does the source list for `Clc1ccccc1[C@@H]1C[C@@H]2Cc3cc(Br)c4ccccc4c3N1O2`?
GI50: 1.81 µM; TGI: 5.67 µM

How did the GI50 turn out when `CN(C)C[C@H]1CCn2c(c(C3=C(c4cn(C)c5ccccc45)C(=O)NC3=O)c3ccccc32)C1` was run?
The GI50 was 3.85 µM.

And the TGI?
The TGI was 7.86 µM.

For `Oc1[nH]c(N=C2N=c3ccccc3=N2)c2ccccc12`, which GI50 is on record?
The GI50 was 11.2 µM.

And the TGI?
The TGI was 31.2 µM.

How did the GI50 turn out when `C=CCNc1nc(O)c(/C=C2\C=Nc3ncccc32)s1` was run?
The GI50 was 1.92 µM.

What about the TGI of the same compound?
The TGI was 4.13 µM.

`Cc1cc(C(=O)Nc2cc(Oc3ccc4nc(NC(=O)C5CC5)cn4n3)ccc2C)n(C)n1` was tested. Which GI50 did it give?
Its GI50 is 5.51 µM.

What about the TGI of the same compound?
The TGI was over 10 µM.

For `O=C1Nc2ccccc2/C1=C\c1cccc(/C=C2/C(=O)Nc3ccccc32)n1`, which GI50 is on record?
The GI50 was 0.336 µM.

What about the TGI of the same compound?
The TGI was 1.38 µM.
